Read-outs that look alike come from different tables or passages of the source.
Tests used:
[1] = system: IL-4; assay: Cytokine assay: IL-4 release from PHA-L stimulated human PBMCs; assay type: cell-based; settings: read-out: IL4 IC50
Outline: (§1)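 Thawed cryopreserved human PBMCs (~250,000 cells/well) in RPMI 1640 with 10% heat-inactivated FBS were treated with compound for ~10 min at room temperature, then stimulated with 3.5 μg/mL PHA-L (final) for 48 h at 37° C. Supernatant cytokine was measured by HTRF, and IC50 was derived by four-parameter logistic fit.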

[2] = system: IL-13; assay: Cytokine assay: IL-13 release from PHA-L stimulated human PBMCs; assay type: cell-based; settings: read-out: IL13 IC50
Outline: as §1

[3] = target: PDE4B (aa 152-484, Uniprot ID Q07343) (Homo sapiens (Human), UniProt Q07343); assay: PDE4 SPA assay (scintillation proximity assay); assay type: biochemical; settings: read-out: PDE4B2 IC50
Method: Phosphodiesterase (PDE) activity is determined by measuring the effect of a test agent on the activity of the PDE4B enzyme in a scintillation proximity assay (SPA). At the time of assay, approximately 30 μL of PDE4B (aa 152-484, Uniprot ID Q07343) in 50 mM Tris pH 7.5, 1.3 mM MgC2, 0.004% Brij 35 is added to a 384 well white clear bottom polystyrene plate (Corning) containing 1 μL of varying concentrations of test compound. After −10 minutes at room temperature (RT; 21° C.), the assay is initiated by the addition of 20 μL of a mixture of ^3H-labeled (adenosine 3′, 5′-cyclic phosphate, ammonium salt, [2,8-^3H]; Perkin Elmer) and unlabeled cAMP. The final assay conditions are approximately 81.6 pM PDE4B in 50 mM Tris pH 7.5, 1.3 mM MgCl2, 0.004% Brij 35, 1 μM ^3H-labeled/unlabeled cAMP (1425 dpm/pmol) and the indicated final concentration of test compound (approximately 10 μM to […] by 4-fold dilution). The final concentration of DMSO in the assay is approximately 2.0%. After 30 minutes at RT, the assay is terminated by the addition of approximately 20 μL of an aqueous solution of PDE YSI SPA beads (8 mg/mL in water; Perkin Elmer). The beads are allowed to settle for at least 2 hours and the plate is then counted on a MicroBeta2 (Perkin Elmer). The concentrations and resulting effect values for the tested compound are plotted and the concentration of compound required for 50% effect (IC50) is determined with a four-parameter logistic dose response equation (E-WorkBook, ID Business Solutions Ltd.) and shown in Table 17.

[4] = system: IFNγ; assay: Cytokine assay: IFNγ release from PHA-L stimulated human PBMCs; assay type: cell-based
Outline: as §1

Sequence of PDE4B (aa 152-484, Uniprot ID Q07343) (Q07343 324-656): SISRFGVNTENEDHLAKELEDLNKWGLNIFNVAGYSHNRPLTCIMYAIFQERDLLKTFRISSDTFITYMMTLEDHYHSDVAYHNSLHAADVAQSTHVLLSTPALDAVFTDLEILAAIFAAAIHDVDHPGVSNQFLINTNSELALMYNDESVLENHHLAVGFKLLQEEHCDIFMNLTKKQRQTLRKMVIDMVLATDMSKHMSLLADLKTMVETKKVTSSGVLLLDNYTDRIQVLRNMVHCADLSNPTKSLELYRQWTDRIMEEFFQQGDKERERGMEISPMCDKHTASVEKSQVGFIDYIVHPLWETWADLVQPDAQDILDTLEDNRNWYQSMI

SMILES	IC50 [1] [µM]	IC50 [2] [µM]	IC50 [3] [µM]	IC50 [4] [µM]	IC50 ([1]; Homo sapiens, PBMC) [µM]	IC50 ([2]; Homo sapiens, PBMC) [µM]	IC50 ([4]; Homo sapiens, PBMC) [µM]
CCOc1c(OC)ccc(-c2cncc(C3COB(O)C3)c2)c1C(F)F (single isomer, unassigned; (-)) [Example 10, (−) 4-(5-(2-(difluoromethyl)-3-ethoxy-4-methoxyphenyl)pyridin-3-yl)-1,2-oxaborolan-2-ol]	0.00239	0.438	0.00692	0.00162			
CCOc1ccc(-c2cncc(C3COB(O)C3)c2)cc1OC (single isomer, unassigned; enantiomer2) [Example 188, 4-(5-(4-ethoxy-3-methoxyphenyl)pyridin-3-yl)-1,2-oxaborolan-2-ol, enantiomer2]			0.0125		0.135	1.53	0.0123
CCOc1c(OC)cc(F)c(-c2cncc(C3COB(O)C3)c2)c1F (single isomer, unassigned; enantiomer 1) [Example 164, (−) 4-(5-(3-ethoxy-2,6-difluoro-4-methoxyphenyl)pyridin-3-yl)-1,2-oxaborolan-2-ol, enantiomer 1]			0.00558		0.0411	0.986	0.00787
CCCOc1c(OC)ccc(-c2cncc(C3COB(O)C3)c2)c1OC (single isomer, unassigned; enantiomer 1) [Example 168, (−) 4-(5-(2,4-dimethoxy-3-propoxphenyl)pyridin-3-yl)-1,2-oxaborolan-2-ol, enantiomer 1]			0.00088		0.00117	1.26	0.00064
COc1ccc(-c2cncc(C3COB(O)C3)c2)cc1OC1CCSCC1 (single isomer, unassigned; enantiomer 1) [Example 170, 4-(5-(4-methoxy-3-((tetrahydro-2H-thiopyran-4-yl)oxy)phenyl)pyridin-3-yl)-1,2-oxaborolan-2-ol, enantiomer 1]			0.00378		0.0485	1.07	0.00283
CCCOc1cc(-c2cncc(C3COB(O)C3)c2)ncc1OC (single isomer, unassigned; enantiomer 1) [Example 179, 4-(5-methoxy-4-propoxy-[2,3′-bipyridin]-5-yl)-1,2-oxaborolan-2-ol, enantiomer 1]			0.00098		0.00072	2.73	0.00074
CCCOc1cc(-c2cc(C3COB(O)C3)cc(CO)n2)ccc1OC (single isomer, unassigned; enantiomer 1) [Example 180, 4-(2-(hydroxymethyl)-6-(4-methoxy-3-propoxyphenyl)pyridin-4-yl)-1,2-oxaborolan-2-ol, enantiomer 1]			0.00301		0.00633	1.29	0.00665
COc1ccc(-c2cncc(C3COB(O)C3)c2)cc1OC1CC1 (single isomer, unassigned; enantiomer 1) [Example 193, 4-(5-(3-cyclopropoxy-4-methoxyphenyl)pyridin-3-yl)-1,2-oxaborolan-2-ol, enantiomer 1]	0.0731	1.53	0.00063	0.00216			
CCOc1cc(-c2nc(C3COB(O)C3)cs2)ccc1OC (single isomer, unassigned; enantiomer 1) [Example 194, (−) 4-(2-(3-ethoxy-4-methoxyphenyl)thiazol-4-yl)-1,2-oxaborolan-2-ol, enantiomer 1]			0.00363		0.00285	1.54	0.0147
CCCOc1cc(-c2nc(OCCO)cc(C3COB(O)C3)n2)ccc1OC (single isomer, unassigned; enantiomer 1) [Example 196, (−) 4-(6-(2-hydroxyethoxy)-2-(4-methoxy-3-propoxyphenyl)pyrimidin-4-yl)-1,2-oxaborolan-2-ol, enantiomer 1]			0.00034		0.00029	1.54	0.00081
CCOc1cc(-c2cccc(C3COB(O)C3)n2)ccc1SC (single isomer, unassigned; enantiomer 1) [Example 204, 4-(6-(3-ethoxy-4-(methylthio)phenyl)pyridin-2-yl)-1,2-oxaborolan-2-ol, enantiomer 1]			0.00607		0.0227	1.71	0.0218
CCOc1cc(-c2c(C)ncc(C3COB(O)C3)c2C)ccc1OC (single isomer, unassigned; enantiomer 1) [Example 205, (+) 4-(5-(3-ethoxy-4-methoxyphenyl)-4,6-dimethylpyridin-3-yl)-1,2-oxaborolan-2-ol, enantiomer 1]			0.00052		0.00106	1.77	0.00109
CCCOc1c(OC)ccc(-c2cncc(C3COB(O)C3)n2)c1F (single isomer, unassigned; enantiomer 1) [Example 216, 4-(6-(2-fluoro-4-methoxy-3-propoxyphenyl)pyrazin-2-yl)-1,2-oxaborolan-2-ol, enantiomer 1]			0.00405		0.0196	2.86	0.00194
CCCOc1cc(-c2cc(C3COB(O)C3)cnc2C)cnc1OC (single isomer, unassigned; enantiomer 1) [Example 219, (−) 4-(6′-methoxy-2-methyl-5′-propoxy-[3,3′-bipyridin]-5-yl)-1,2-oxaborolan-2-ol, enantiomer 1]			0.00082		0.0041	2.13	0.00167
CCOc1cc(C2COB(O)C2)nc(-c2ccc(OC)c(OCC)c2)n1 (single isomer, unassigned; enantiomer 1) [Example 223, 4-(6-ethoxy-2-(3-ethoxy-4-methoxyphenyl)pyrimidin-4-yl)-1,2-oxaborolan-2-ol, enantiomer 1]			0.00667		0.0309	2.69	0.0225
CCCOc1cc(-c2ccc(F)c(C3COB(O)C3)n2)ccc1OC (single isomer, unassigned; enantiomer 1) [Example 230, 4-(3-fluoro-6-(4-methoxy-3-propoxyphenyl)pyridin-2-yl)-1,2-oxaborolan-2-ol, enantiomer 1]			0.0171		0.141	2.78	0.0265
CCCOc1nc(-c2cc(C3COB(O)C3)cnc2C)ccc1OC (single isomer, unassigned; enantiomer 1) [Example 231, (−) 4-(5-methoxy-2′-methyl-6-propoxy-[2,3′-bipyridin]-5′-yl)-1,2-oxaborolan-2-ol, enantiomer 1]			0.00198		0.00125	2.95	0.00172
CCCOc1cc(-c2nc(CO)cc(C3COB(O)C3)n2)c(F)cc1OC (single isomer, unassigned; enantiomer 2) [Example 154, (−) 4-(2-(2-fluoro-4-methoxy-5-propoxyphenyl)-6-(hydroxymethyl)pyrimidin-4-yl)-1,2-oxaborolan-2-ol, enantiomer 2]			0.0141		0.0314	0.893	0.0152
CCOc1cc(-c2cncc(C3COB(O)C3)c2)cc(Cl)c1OC (single isomer, unassigned; enantiomer 2) [Example 173, 4-(5-(3-chloro-5-ethoxy-4-methoxyphenyl)pyridin-3-yl)-1,2-oxaborolan-2-ol, enantiomer 2]	0.0771	1.13	0.01	0.0302			
